Data on 14 molecules can be found in US10246469B2, “Biaryl kinase inhibitors” (BRISTOL-MYERS SQUIBB COMPANY, priority 2015, dated 2019).

This assay has as its target T1, GST-Xa-hAAK1 (Homo sapiens, UniProt Q2M2I8).
T1 construct: GST (N); Factor Xa cleavage site (Xa) (internal); made in house
As to the kind of experiment: AAK1 Kinase Assay. Format: biochemical. The note with it: bacterially expressed GST-Xa-hAAK1 3.5 nM; ATP 22 μM; fluoresceinated peptide 1.5 μM; 3 hours at room temperature; Caliper LabChip 3000. In outline: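 Bacterially expressed GST-Xa-hAAK1 (3.5 nM) phosphorylated 1.5 μM 5-FAM peptide with 22 μM ATP in Tris pH 7.4, MgCl2, DTT, 1.6% DMSO, 3 h at room temperature. EDTA-stopped; product separated electrophoretically on Caliper LabChip. IC50 from eleven concentrations by non-linear regression.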

Structures are written as SMILES.

T1 sequence (Q2M2I8 whole entry): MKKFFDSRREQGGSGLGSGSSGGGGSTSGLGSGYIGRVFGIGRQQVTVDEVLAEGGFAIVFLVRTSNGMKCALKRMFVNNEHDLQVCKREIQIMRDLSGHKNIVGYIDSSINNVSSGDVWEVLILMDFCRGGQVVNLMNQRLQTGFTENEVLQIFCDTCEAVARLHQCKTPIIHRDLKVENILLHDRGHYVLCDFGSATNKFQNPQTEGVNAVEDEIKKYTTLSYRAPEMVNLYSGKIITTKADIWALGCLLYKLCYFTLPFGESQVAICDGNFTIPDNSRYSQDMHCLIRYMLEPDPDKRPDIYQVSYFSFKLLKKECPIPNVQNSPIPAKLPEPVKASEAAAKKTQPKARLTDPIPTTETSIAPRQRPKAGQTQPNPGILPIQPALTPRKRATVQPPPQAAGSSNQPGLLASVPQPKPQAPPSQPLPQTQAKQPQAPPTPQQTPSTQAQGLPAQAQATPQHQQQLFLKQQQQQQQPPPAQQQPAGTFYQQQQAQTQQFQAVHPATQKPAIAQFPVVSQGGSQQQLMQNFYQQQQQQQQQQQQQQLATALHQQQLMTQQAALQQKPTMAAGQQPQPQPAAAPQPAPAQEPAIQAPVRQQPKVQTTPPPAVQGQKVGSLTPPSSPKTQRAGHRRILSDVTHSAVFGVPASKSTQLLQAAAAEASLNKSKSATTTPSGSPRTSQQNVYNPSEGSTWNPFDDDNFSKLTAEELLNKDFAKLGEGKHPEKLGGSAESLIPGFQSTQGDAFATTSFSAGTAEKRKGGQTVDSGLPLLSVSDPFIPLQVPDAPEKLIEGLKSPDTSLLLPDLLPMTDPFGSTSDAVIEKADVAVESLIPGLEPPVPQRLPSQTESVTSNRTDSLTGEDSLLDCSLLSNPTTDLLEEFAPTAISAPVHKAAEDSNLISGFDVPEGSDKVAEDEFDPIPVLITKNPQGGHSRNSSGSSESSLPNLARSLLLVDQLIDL

For `CC(C)C[C@](C)(N)COc1ccc(-c2ccnc3c2C(=O)NC3)cc1F` [Example 416, (S)-4-(4-((2-amino-2,4-dimethylpentyl)oxy)-3-fluorophenyl)-6,7-dihydro-5H-pyrrolo[3,4-b]pyridin-5-one], the IC50 (as a rule, the concentration at which inhibition is half-maximal) was 0.094 µM.
The same measure for `CC(C)C[C@](C)(N)COc1ccc(-c2ccnc3c2C(=O)NC3)cc1Cl` [Example 417, (S)-4-(4-((2-amino-2,4-dimethylpentyl)oxy)-3-chlorophenyl)-6,7-dihydro-5H-pyrrolo[3,4-b]pyridin-5-one]: 0.0036 µM.
Regarding `CCN1Cc2nccc(-c3ccc(OC[C@@](C)(N)CC(C)C)c(C(F)(F)F)c3)c2C1=O` [Example 418, (S)-4-(4-((2-amino-2,4-dimethylpentyl)oxy)-3-(trifluoromethyl)phenyl)-6-ethyl-6,7-dihydro-5H-pyrrolo[3,4-b]pyridin-5-one], the IC50 was found to be 0.029 µM.
On to `CCN1Cc2nccc(-c3ccc(OC[C@@](C)(N)CC(C)C)c(F)c3)c2C1=O` [Example 419, (S)-4-(4-((2-amino-2,4-dimethylpentyl)oxy)-3-fluorophenyl)-6-ethyl-6,7-dihydro-5H-pyrrolo [3,4-b]pyridin-5-one], for which the IC50 came to 1.14 µM.
On to `CC(C)C[C@](C)(N)COc1ccc(-c2ccnc3cc[nH]c23)cc1F` [Example 420, (S)-1-(2-fluoro-4-(1H-pyrrolo[3,2-b]pyridin-7-yl)phenoxy)-2,4-dimethylpentan-2-amine], for which the IC50 came to 0.0011 µM.
With `CC(C)C[C@](C)(N)COc1ccc(-c2ccnc3cc[nH]c23)cc1C#N` [Example 421, (S)-2-((2-amino-2,4-dimethylpentyl)oxy)-5-(1H-pyrrolo[3,2-b]pyridin-7-yl)benzonitrile], the IC50 was 0.0005 µM.
With `CC(C)C[C@](C)(N)COc1ccc(-c2ccnc3ccn(C)c23)cc1C#N` [Example 423, (S)-2-((2-amino-2,4-dimethylpentyl)oxy)-5-(1-methyl-1H-pyrrolo[3,2-b]pyridin-7-yl)benzonitrile] the figure was 0.862 µM.
Turning to `CC(C)C[C@](C)(N)COc1ccc(-c2ccnc3cc[nH]c23)cc1C(F)(F)F` [Example 424, (S)-1-(4-(1H-pyrrolo[3,2-b]pyridin-7-yl)-2-(trifluoromethyl)phenoxy)-2,4-dimethylpentan-2-amine], the IC50 came to 0.0012 µM.
With `CC(C)C[C@](C)(N)COc1ccc(-c2ccnc3c2C(=O)NC3)cc1C(F)(F)F` [Example 425, (S)-4-(4-((2-amino-2,4-dimethylpentyl)oxy)-3-(trifluoromethyl)phenyl)-6,7-dihydro-5H-pyrrolo [3,4-b]pyridin-5-one] the figure was 0.0014 µM.
The same measure for `CC(C)C[C@](C)(N)COc1ccc(-c2ccnc3c2C(=O)N(C)C3)cc1C(F)(F)F` [Example 426, (S)-4-(4-((2-amino-2,4-dimethylpentyl)oxy)-3-(trifluoromethyl)phenyl)-6-methyl-6,7-dihydro-5H-pyrrolo [3,4-b]pyridin-5-one]: 0.0072 µM; for `Cc1cc(-c2ccnc3ccn(C)c23)ccc1OC[C@@](C)(N)CC(C)C` [Example 427, (S)-2,4-dimethyl-1-(2-methyl-4-(1-methyl-1H-pyrrolo[3,2-b]pyridin-7-yl)phenoxy)pentan-2-amine]: 1.74 µM; for `Cc1cc(-c2ccnc3c2C(=O)NC3)ccc1OC[C@@](C)(N)CC(C)C` [Example 428, (S)-4-(4-((2-amino-2,4-dimethylpentyl)oxy)-3-methylphenyl)-6,7-dihydro-5H-pyrrolo[3,4-b]pyridin-5-one]: 0.013 µM.
With `CC(C)C[C@](C)(N)COc1ccc(-c2ccnc3c2C(=O)N(C)C3)cc1Cl` [Example 429, (S)-4-(4-((2-amino-2,4-dimethylpentyl)oxy)-3-chlorophenyl)-6-methyl-6,7-dihydro-5H-pyrrolo[3,4-b]pyridin-5-one] the figure was 0.036 µM; with `Cc1cc(-c2ccnc3c2C(=O)N(C)C3)ccc1OC[C@@](C)(N)CC(C)C` [Example 430, (S)-4-(4-((2-amino-2,4-dimethylpentyl)oxy)-3-methylphenyl)-6-methyl-6,7-dihydro-5H-pyrrolo[3,4-b]pyridin-5-one], 0.067 µM.
